Assay results published in article PMC4601051, “Discovery of Indoline-2-carboxamide Derivatives as a New Class of Brain-Penetrant Inhibitors of Trypanosoma brucei” (Journal of Medicinal Chemistry, 2015).
Read-outs that look alike come from different tables or passages of the source.

What was measured:
in vitro = details: human
Procedure: Proliferation assays using bloodstream form T. brucei brucei and human MRC-5 fibroblasts were conducted using a modification of the cell viability assay as previously reported.[27],[39]
MRC-5 cells (2000 cells per well) were seeded in 200 μL of DMEM, 10% FCS, and allowed to adhere overnight. One microliter of test compound was added to each well on the day of assay initiation.
The final DMSO level was 0.5% in all cases.

[1] = system: bloodstream form T. brucei brucei; assay: T. b. brucei whole cell parasite (trypanosome growth) assay; type: cell-based, Trypanosoma brucei brucei; details: for EC50: 69 h + 4 h resazurin; for loss in potency: T. b. brucei EC50, compared to 1 (parent)
Procedure: This was conducted as previously described.[27] Cell culture plates were stamped with 1 μL of an appropriate stock concentration of test compound, followed by addition of 200 μL of trypanosome culture (HMI9-T, 10% FCS) to each well at a density of 2000 cells per well (except column 12 receiving media only). […] Potency was carried out using 10-point dose–response curves.

[2] = Microsomal intrinsic clearance (Clint), mouse; type: in vitro ADME; details: mouse liver microsomes, 0.5 μM compound
Procedure: (§1) Each test compound (0.5 μM) was incubated with pooled female CDI mouse liver microsomes, pooled male Sprague–Dawley rat microsomes, or pooled mixed gender human liver microsomes (Tebu-Bio, UK; 0.5 mg/mL 50 mM potassium phosphate buffer, pH 7.4) and the reaction started with addition of excess NADPH (8 mg/mL, 50 mM potassium phosphate buffer, pH 7.4). Immediately, at time zero, then at 3, 6, 9, 15, and 30 min, an aliquot (50 μL) of the incubation mixture was removed and mixed with acetonitrile (100 μL) to stop the reaction. Internal standard was added to all samples, and the samples were centrifuged at 1825g for 10 min to sediment precipitated protein. The plates were then sealed prior to UPLC/MS/MS analysis using a Quattro Premier XE (Waters Corporation, USA).
(§2) XLfit (IDBS, UK) was used to calculate the exponential decay and consequently the rate constant (k) from the ratio of peak area of test compound to internal standard at each time point.

[3] = Microsomal intrinsic clearance (Clint), human; type: in vitro ADME; details: human liver microsomes, 0.5 μM compound
Procedure: as §1, §2

[4] = Microsomal intrinsic clearance (Clint), rat; type: in vitro ADME; details: rat liver microsomes, 0.5 μM compound
Procedure: as §1, §2

[5] = Trypanosoma brucei, mean of two or more determinations, read-out: T. b. brucei EC50

Structure (SMILES)	EC50 at 69 h (in vitro; MRC-5 fibroblasts) [nM]	EC50 [1, 5] [nM]	mouse microsomal intrinsic clearance [2] [mL min^–1 g^–1]	other results
CCOc1ccc(OCC(=O)N2c3ccccc3CC2C(=O)NC)cc1 (centres unmarked) [Compound 17]	> 50000	310		
CNC(=O)[C@H]1Cc2ccccc2N1C(=O)COc1ccc(F)c(F)c1 [Compound 37]	> 50000	30	3.2	
CNC(=O)C1Cc2cc(-c3ccncc3)ccc2N1C(=O)COc1ccc(F)cc1 (centres unmarked) [Compound 62]	> 50000	440		loss in potency [1]: ~10 fold
CNC(=O)C1Cc2ccccc2N1C(=O)COc1ccc2ccccc2c1 (centres unmarked) [Compound 18]	> 50000	2900		
CCNC(=O)C1Cc2ccccc2N1C(=O)COc1cccc(C)c1 (centres unmarked) [Compound 22]	> 50000	650		
CNC(=O)C1Cc2ccccc2N1C(=O)Cc1cccs1 (centres unmarked) [Compound 20]	> 50000	660		
CNC(=O)C1Cc2ccccc2N1C(=O)Cc1ccc(C(F)(F)F)cc1 (centres unmarked) [Compound 42]	> 50000	100	3.0	EC50 ([1]; mean of two or more determinations, read-out: T. b. brucei EC50): 110 nM
CNC(=O)C1Cc2cc(F)cc(F)c2N1C(=O)COc1ccc(F)cc1 (centres unmarked) [Compound 58]	> 50000	80	2.9	
CNC(=O)C1N(C(=O)COc2ccc(Cl)cc2)c2ccccc2C1(C)C (centres unmarked) [Compound 63]	> 50000	920	14	loss in potency [1]: ~34 fold
CNC(=O)C1Cc2ccccc2CN1C(=O)COc1ccc(F)cc1 (centres unmarked) [Compound 66]	> 50000	37000		
CCNC(=O)C1Cc2ccccc2N1C(=O)CCC1CCCC1 (centres unmarked) [Compound 23]	> 50000	990		
CNC(=O)C1Cc2ccccc2N1C(=O)Cc1ccc(F)cc1F (centres unmarked) [Compound 44]	> 50000	2300	0.5	
CNC(=O)C1Cc2ccccc2N1C(=O)Cc1cccc2ccccc12 (centres unmarked) [Compound 39]			28	EC50 at 69 h (in vitro): > 50000 nM; T. b. brucei potency in words [1]: complete loss of potency; EC50 ([1]; Trypanosoma brucei, read-out: T. b. brucei EC50, mean of two or more determinations): 50000 nM
CNC(=O)C1Cc2ccccc2N1C(=O)COc1ccc(C)cc1 (centres unmarked) [Compound 34]	> 50000	30	6.5	microsomal intrinsic clearance, human [3]: 2.4 mL min^–1 g^–1; microsomal intrinsic clearance, rat [4]: 47 mL min^–1 g^–1
[2H]c1c([2H])c([2H])c(OCC(=O)N2c3ccccc3C[C@@H]2C(=O)NC)c([2H])c1[2H] [Compound 38]	> 50000	50		
CNC(=O)[C@H]1Cc2ccccc2N1C(=O)COc1ccc(F)cc1 [Compound 36]	> 50000	40	1.2	microsomal intrinsic clearance, human [3]: 1.3 mL min^–1 g^–1; microsomal intrinsic clearance, rat [4]: 4.9 mL min^–1 g^–1
CNC(=O)C1Cc2ccccc2N1C(=O)Cc1ccc(F)c(F)c1 (centres unmarked) [Compound 46]	> 50000	110	1.9	
CNC(=O)C1Cc2ccccc2N1C(=O)COCc1ccccc1 (centres unmarked) [Compound 28]	> 50000	1900		loss in potency [1]: ~70 fold
CC(C)Oc1ccc(C(=O)N2c3ccccc3CC2C(N)=O)cc1 (centres unmarked) [Compound 25]	> 50000	> 50000		
